Experimental data as given in ChEMBL document CHEMBL1201862, “PubChem BioAssay data set” (2004).
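Dose response: 5 concentrations. Exposure: 48 h. Format: 96-well plates. Endpoint: linear interpolation; highest concentration if not reached. The concentration for 50% growth inhibition is given as GI50.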 Active and inactive are the calls of the source. No stated cut-off is given here; in the data, active = GI50 up to about 1.1 µM and inactive = higher.

Legend:
Test in all cases: NCI tumour cell line growth inhibition, 48 h
T47D = system: T47D
DMS-273 = system: DMS-273
KM-20L2 = system: KM-20L2
SNB-78 = system: SNB-78
HOP-18 = system: HOP-18
XF498 = system: XF498
MDA-N = system: MDA-N
LXFL 529 = system: LXFL 529
RXF 631 = system: RXF 631

Compound	GI50 (T47D)	GI50 (DMS-273)	GI50 (KM-20L2)	GI50 (SNB-78)	GI50 (HOP-18)	GI50 (XF498)	GI50 (MDA-N)	GI50 (LXFL 529)	GI50 (RXF 631)
Cc1sc(N)c(S(=O)(=O)c2ccccc2)c1C	> 100 µM (inactive)								
CC(=O)OCC1OC(n2cc(F)c(=O)[nH]c2=O)C(NC(=O)OCc2ccccc2)C(OC(C)=O)C1OC(C)=O (centres undefined)		> 100 µM (inactive)	> 100 µM (inactive)	> 100 µM (inactive)	> 100 µM (inactive)	> 100 µM (inactive)			
C/C(=N\NC(=S)N1CCN(c2ccccn2)CC1)c1cccc(C)n1	0.528 µM (active)						3.14 µM (inactive)		
COC(=O)c1c(-c2ccccc2)c2sc3ccccc3n2c1N	20.8 µM (inactive)						50.4 µM (inactive)		
CCCC(=O)Nc1cc(/C=C/C(=O)N2CC(CCl)c3c2cc(OCc2ccccc2)c2[nH]cc(C)c32)n(C)c1 (centres undefined)	0.225 µM (active)						0.249 µM (active)		
O=NN(CCCl)C(=O)NC1CCSc2ccccc21 (centres undefined)		> 100 µM (inactive)	> 100 µM (inactive)	> 100 µM (inactive)	> 69 µM (inactive)	> 100 µM (inactive)			
Nc1ncnc2c1ncn2[C@@H]1O[C@H](COP(=O)(O)O)[C@@H](O)[C@@H]1O		> 50 µM (inactive)	> 50 µM (inactive)	> 50 µM (inactive)	> 50 µM (inactive)	> 34.4 µM (inactive)			
CCOC(=O)[C@H]1Nc2c(cccc2[N+](=O)[O-])C2c3ccccc3CC21 (some centres undefined)		> 100 µM (inactive)	> 100 µM (inactive)	> 100 µM (inactive)		> 100 µM (inactive)		> 100 µM (inactive)	> 100 µM (inactive)
COc1ccc(/C=N/NC(=O)NCCCN(C)C)cc1		> 100 µM (inactive)		> 100 µM (inactive)	> 100 µM (inactive)	> 100 µM (inactive)			
COc1cc(N/N=C/C#N)cc(OC)c1OC	4.65 µM (inactive)						> 10 µM (inactive)		
Nc1nc(SCCC/C=C/I)nc2c1ncn2C1OC(CO)C(O)C1O (centres undefined)		> 202 µM (inactive)	> 202 µM (inactive)	> 202 µM (inactive)	> 202 µM (inactive)	> 202 µM (inactive)			
COc1ccc2c(c1)CCc1cc(OC)ccc1/[N+]([O-])=[N+]\2[O-]	17 µM (inactive)						14.3 µM (inactive)		
CC1(C)CCC2(C(=O)O)C(O)CC3(C)C(=CCC4C5(C)CCC(OC6OCC(O)C(O)C6OC6OCC(O)C(O)C6OC6OCC(O)C(OC7OC(CO)C(O)C(O)C7O)C6O)C(C)(C)C5CCC43C)C2C1 (centres undefined)	97.1 µM (inactive)						20.8 µM (inactive)		
COC1=CC(=O)c2ccccc2C1(C)C1=NC(C)(C)CO1 (centres undefined)		> 100 µM (inactive)	> 100 µM (inactive)		> 100 µM (inactive)	> 100 µM (inactive)		> 100 µM (inactive)	> 100 µM (inactive)
CCCCCCCNC(P(=O)(O)O)P(=O)(O)O	> 100 µM (inactive)						> 100 µM (inactive)		
O=C1C2=C(c3ccccc31)C(c1ccc(Cl)cc1)NC(S)=N2 (centres undefined)		20.3 µM (inactive)	20.4 µM (inactive)					14.8 µM (inactive)	
Nc1ccc2[nH]c3c(-c4ccccc4)nccc3c2c1		53.3 µM (inactive)	48.3 µM (inactive)	> 55 µM (inactive)	> 100 µM (inactive)	61.2 µM (inactive)			
COC(=O)C1=C(C(=O)OC)C(N(C)C)C(C(=O)OC)=C(C(=O)OC)S1	> 100 µM (inactive)						> 100 µM (inactive)		
Cc1ccc(S(=O)(=O)N/N=C/c2c(O)ccc3ccccc23)cc1	31.8 µM (inactive)						27.6 µM (inactive)		
C=C1C(=O)C[C@@]23CCC[C@@]12CC(O)C3 (some centres undefined)		17.3 µM (inactive)	21.8 µM (inactive)	28.2 µM (inactive)	6.79 µM (inactive)	22.6 µM (inactive)			
CCCCCC/C(CC(=O)CCC(=O)NCCc1ccccc1)=N\NC(=O)c1ccc2ccccc2c1O			35.1 µM (inactive)	67.3 µM (inactive)	12.1 µM (inactive)	63 µM (inactive)		42.1 µM (inactive)	61.2 µM (inactive)
CCOC(=O)c1ccc(N[C@@H]2c3cc4c(cc3C(c3cc(OC)c(O)c(OC)c3)[C@H]3C(=O)OCC32)OCO4)cc1O (some centres undefined)		0.299 µM (active)	2.2 µM (inactive)	1.77 µM (inactive)	2.25 µM (inactive)	1.3 µM (inactive)			

Compound	GI50 (T47D)	GI50 (DMS-273)	GI50 (KM-20L2)	GI50 (SNB-78)	GI50 (HOP-18)	GI50 (XF498)	GI50 (MDA-N)	GI50 (LXFL 529)	GI50 (RXF 631)
COC(=O)c1ccc2c(c1)CCN2C(=O)c1cc2c(cc1Br)OCO2	4.11 µM (inactive)						0.0834 µM (active)		
N#Cc1cc2c(cc1C#N)/C(=N\c1cccc(N)n1)N/C2=N\c1cccc(N)n1	21.8 µM (inactive)						20.3 µM (inactive)		
[N-]=[N+]=CC(=O)c1ccccc1C#CCCc1ccccc1		23.2 µM (inactive)	23.6 µM (inactive)		40.3 µM (inactive)	12.1 µM (inactive)			
COc1cc(Nc2nc3ccc(C(F)(F)F)cc3nc2C(=O)O)cc(OC)c1OC	26.8 µM (inactive)						19.3 µM (inactive)		
Nc1nc(N)c2c(Cl)c(CNc3ccc(Cl)c(Cl)c3)ccc2n1	6.85 µM (inactive)	< 0.0259 µM (active)	0.225 µM (active)	7.19 µM (inactive)	0.716 µM (active)	2.07 µM (inactive)	< 0.01 µM (active)	< 0.0278 µM (active)	
Nc1nc(Cl)cc(NCCCCCCCCCCCCNc2cc(Cl)nc(N)n2)n1		7.57 µM (inactive)	49.1 µM (inactive)		> 100 µM (inactive)	0.386 µM (active)		0.769 µM (active)	
COc1ccc2cc(/C=N/NC(=O)Nc3ccccc3)ccc2c1	> 100 µM (inactive)						> 100 µM (inactive)		
COC(=O)CC1(CNC(=O)OCc2ccccc2)OCCO1							> 100 µM (inactive)		
O=C(Nc1cccc(C(F)(F)F)c1)C(=O)C(C(=O)c1ccc(Cl)c(Cl)c1)C1OC(=O)c2ccccc21 (centres undefined)		33.9 µM (inactive)	39.4 µM (inactive)	32.4 µM (inactive)	17.5 µM (inactive)	> 100 µM (inactive)		28.7 µM (inactive)	39.3 µM (inactive)
[N-]=[N+]=CC(=O)OCC(N)C(=O)O (centres undefined)		0.245 µM (active)	0.157 µM (active)	586 µM (inactive)	625 µM (inactive)	5.96 µM (inactive)			
CC(C)NC(=O)OCc1c(COC(=O)NC(C)C)c(-c2cc[n+](COC(=O)Cc3ccccc3)cc2)n2c1CCC2	> 100 µM (inactive)						> 100 µM (inactive)		
CC1(C)CCc2cc3c(cc2O1)OC(C)(C)CC3=O		71.3 µM (inactive)				50.8 µM (inactive)		81.5 µM (inactive)	
Cc1ccc2c3c4c(ccc13)C(C)(C)OC4=C(C(C)C)C2=O	53.5 µM (inactive)						> 100 µM (inactive)		
CCCCCC1CC(C(C)=O)CN1c1ccc(F)cc1 (centres undefined)		35.6 µM (inactive)	35.3 µM (inactive)	36.4 µM (inactive)	13.1 µM (inactive)	21.1 µM (inactive)		32.1 µM (inactive)	
CCN(CC)c1ccc2c(c1)Oc1ccc(N(C(C)=O)c3ccccc3)cc1C21OC(=O)c2ccccc21 (centres undefined)	5.32 µM (inactive)						32.6 µM (inactive)		
CN(C)CCCNc1ccc2nnn3c4ccc(O)cc4c(=O)c1c23	21 µM (inactive)		3.3 µM (inactive)	6.08 µM (inactive)	9.06 µM (inactive)		6.52 µM (inactive)	6.61 µM (inactive)	
CCCCCCCCCCC(C)CCCCCCC(=O)O (centres undefined)		> 100 µM (inactive)		> 100 µM (inactive)	> 100 µM (inactive)			> 100 µM (inactive)	> 100 µM (inactive)
CCOC(=O)/C(=N/Nc1ccc(Cl)cc1)N1C(=S)N(C)N=C(C)C=C1S	29.8 µM (inactive)								
O=C(O)c1nc2ccc(C(F)(F)F)cc2[nH]c1=O	> 100 µM (inactive)						> 100 µM (inactive)		
CN(C)CCCCN1CCc2c(n(C)c3ccccc23)C1=O	25.5 µM (inactive)						19.3 µM (inactive)		
Cc1ccc(-c2c(C#N)c(-c3ccc([N+](=O)[O-])cc3)c(C#N)c(=O)n2NS(=O)(=O)c2ccccc2)cc1							84.3 µM (inactive)		
